Laboratory results from ChEMBL document CHEMBL1201862, “PubChem BioAssay data set” (2004).
Where “and” joins values, the source holds several entries; their conditions need not be identical. Identical values can stand only once. Calls of active or inactive are those of the source.

Tests used:
[1] = non-specific 3'UTR reporter inhibition in Clone20-Shn3RL – cell-based, Renilla luciferase, cherry-picked, counter-screen for Shn3 inhibitor project, dose response (AID 624133); assay type: functional
[2] = loss of viability in HepG2 cells – cell-based, CellTiter-Glo, cherry-picked, cytotoxicity control for Shn3 inhibitor project, dose response (AID 624134); assay type: functional
[3] = reduction of Shn3 3'UTR-driven luciferase in osteoblasts – cell-based, Clone20 osteoblasts, firefly luciferase, cherry-picked, dose response (AID 624132); assay type: functional;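 further: firefly luciferase luminescence from reporter carrying the Shn3 3'UTR in osteoblasts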
[4] = biological target: T1, Corticotropin-releasing factor receptor 2/Corticotropin-releasing factor-binding protein (Homo sapiens, UniProt P24387+Q13324); experiment: activators of CRF receptor 2 with binding protein – uHTS hits, confirmation (AID 602473); assay type: functional; conditions: read-out: EC50_Mean
T1 sequence (Q13324 whole entry): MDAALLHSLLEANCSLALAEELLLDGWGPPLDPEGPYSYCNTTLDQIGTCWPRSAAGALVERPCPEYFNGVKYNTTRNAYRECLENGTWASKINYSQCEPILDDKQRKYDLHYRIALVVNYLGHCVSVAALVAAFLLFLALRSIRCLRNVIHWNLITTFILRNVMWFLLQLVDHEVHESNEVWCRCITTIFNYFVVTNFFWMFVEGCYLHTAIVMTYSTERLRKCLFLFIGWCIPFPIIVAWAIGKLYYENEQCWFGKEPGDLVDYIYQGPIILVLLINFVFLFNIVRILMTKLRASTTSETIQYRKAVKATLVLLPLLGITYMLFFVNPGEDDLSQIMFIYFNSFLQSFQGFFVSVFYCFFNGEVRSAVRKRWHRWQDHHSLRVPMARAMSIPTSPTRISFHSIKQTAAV
T1 sequence (P24387 whole entry): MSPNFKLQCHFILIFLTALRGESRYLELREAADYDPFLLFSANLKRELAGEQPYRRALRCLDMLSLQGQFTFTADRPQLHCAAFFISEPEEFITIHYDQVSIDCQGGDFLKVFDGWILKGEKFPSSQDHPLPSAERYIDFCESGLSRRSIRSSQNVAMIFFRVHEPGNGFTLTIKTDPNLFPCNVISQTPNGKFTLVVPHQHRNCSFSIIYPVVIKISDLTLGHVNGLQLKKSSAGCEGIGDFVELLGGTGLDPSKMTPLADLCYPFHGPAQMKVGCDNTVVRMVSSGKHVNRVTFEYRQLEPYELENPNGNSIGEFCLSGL

Cytochrome P450 3A4 = Cytochrome P450 3A4 (Homo sapiens, UniProt P08684);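 further: CYP3A4 tested as one member of a cytochrome P450 panel screen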
Cytochrome P450 3A4, sequence (P08684 whole entry): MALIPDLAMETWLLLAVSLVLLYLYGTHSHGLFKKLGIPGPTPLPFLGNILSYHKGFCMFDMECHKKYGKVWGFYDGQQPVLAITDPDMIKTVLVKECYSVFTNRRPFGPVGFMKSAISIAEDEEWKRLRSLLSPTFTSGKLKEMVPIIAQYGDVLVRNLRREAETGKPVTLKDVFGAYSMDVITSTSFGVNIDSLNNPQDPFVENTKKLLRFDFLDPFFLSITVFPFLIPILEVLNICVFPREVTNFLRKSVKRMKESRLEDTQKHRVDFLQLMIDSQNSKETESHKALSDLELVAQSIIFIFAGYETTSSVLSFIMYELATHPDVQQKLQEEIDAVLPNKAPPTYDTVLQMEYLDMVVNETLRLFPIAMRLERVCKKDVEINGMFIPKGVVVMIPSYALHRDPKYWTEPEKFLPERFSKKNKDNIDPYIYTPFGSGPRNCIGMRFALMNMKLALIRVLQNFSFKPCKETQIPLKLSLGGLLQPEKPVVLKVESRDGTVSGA

Cytochrome P450 2D6 = Cytochrome P450 2D6 (Homo sapiens, UniProt P10635);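 further: CYP2D6 member of a cytochrome P450 panel assay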
Cytochrome P450 2D6, sequence (P10635 whole entry): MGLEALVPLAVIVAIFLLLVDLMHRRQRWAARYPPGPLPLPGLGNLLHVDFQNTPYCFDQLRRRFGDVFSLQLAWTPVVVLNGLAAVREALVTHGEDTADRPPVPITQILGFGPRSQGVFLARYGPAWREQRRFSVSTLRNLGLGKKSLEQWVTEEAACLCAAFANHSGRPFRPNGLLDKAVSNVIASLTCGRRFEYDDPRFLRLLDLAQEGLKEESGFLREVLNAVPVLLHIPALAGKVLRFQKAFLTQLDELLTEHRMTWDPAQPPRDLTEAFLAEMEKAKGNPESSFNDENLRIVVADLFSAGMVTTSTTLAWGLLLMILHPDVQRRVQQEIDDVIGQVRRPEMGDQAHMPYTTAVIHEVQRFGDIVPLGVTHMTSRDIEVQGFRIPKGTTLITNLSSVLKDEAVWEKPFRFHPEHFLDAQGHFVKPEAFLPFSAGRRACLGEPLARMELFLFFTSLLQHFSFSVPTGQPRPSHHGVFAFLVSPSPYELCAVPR

Cytochrome P450 2C9 = Cytochrome P450 2C9 (Homo sapiens, UniProt P11712)
Cytochrome P450 2C9, sequence (P11712 whole entry): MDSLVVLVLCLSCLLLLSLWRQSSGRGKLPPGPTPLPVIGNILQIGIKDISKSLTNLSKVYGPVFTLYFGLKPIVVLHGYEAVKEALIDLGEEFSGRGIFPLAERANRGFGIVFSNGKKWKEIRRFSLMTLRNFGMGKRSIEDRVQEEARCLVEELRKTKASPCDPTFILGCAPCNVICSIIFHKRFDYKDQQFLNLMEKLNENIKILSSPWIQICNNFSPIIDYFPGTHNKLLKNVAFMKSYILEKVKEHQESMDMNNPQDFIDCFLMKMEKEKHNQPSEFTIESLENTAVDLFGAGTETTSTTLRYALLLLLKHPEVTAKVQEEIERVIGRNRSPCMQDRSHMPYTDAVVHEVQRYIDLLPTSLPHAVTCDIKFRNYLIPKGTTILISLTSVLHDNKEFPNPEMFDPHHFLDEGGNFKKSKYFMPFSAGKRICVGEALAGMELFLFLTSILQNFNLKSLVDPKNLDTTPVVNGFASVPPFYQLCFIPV

[5] = viability of HCT116 lacking mutant beta-catenin – cell-based, human colon tumor, dose response (AID 1045); assay type: functional;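 further: HCT116 colon tumor cells with beta catenin knocked out; cells exposed to compound for 60 hours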
[6] = viability of PTEN-deleted HCT116 cells – cell-based, HCT116 PTEN knockout, dose response (AID 1047); assay type: functional;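 further: HCT116 colon tumor cells with PTEN knocked out; cells exposed to compound for 60 hours before readout; potency for loss of cell viability measured by luminescence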
[7] = Trypanosoma cruzi growth suppression in host cells – NIH3T3 host cells, beta-gal luminescence, confirmation (AID 2044); assay type: functional, cell-based;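 further: intracellular parasites grown in NIH/3T3 mouse fibroblasts as host cells; luminescent beta-galactosidase reporter signal from transgenic T. cruzi replicating inside host cells; inhibitors lower the luminescence signal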
[8] = Luminescence Cell-Based Dose Retest to Confirm Inhibitors of Cancer Stem Cells. [Related pubchem assays (depositor defined):AID2717, AID2721]; assay type: functional; conditions: Homo sapiens
[9] = NIH3T3 cell viability loss – ATP luminescence, mouse fibroblasts, counter-screen, dose response (AID 2010); assay type: functional, cell-based;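 further: cells exposed to compound for about 90 hours before reading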
[10] = biological target: T2, Rac GTPase-activating protein 1 (Homo sapiens, UniProt Q9H0H5); experiment: blockers of MgcRacGAP-driven Rac1 GTP hydrolysis – biochemical, ADP Hunter fluorescence, primary and confirmatory, confirmation (AID 624330); assay type: functional
T2 sequence (Q9H0H5 whole entry): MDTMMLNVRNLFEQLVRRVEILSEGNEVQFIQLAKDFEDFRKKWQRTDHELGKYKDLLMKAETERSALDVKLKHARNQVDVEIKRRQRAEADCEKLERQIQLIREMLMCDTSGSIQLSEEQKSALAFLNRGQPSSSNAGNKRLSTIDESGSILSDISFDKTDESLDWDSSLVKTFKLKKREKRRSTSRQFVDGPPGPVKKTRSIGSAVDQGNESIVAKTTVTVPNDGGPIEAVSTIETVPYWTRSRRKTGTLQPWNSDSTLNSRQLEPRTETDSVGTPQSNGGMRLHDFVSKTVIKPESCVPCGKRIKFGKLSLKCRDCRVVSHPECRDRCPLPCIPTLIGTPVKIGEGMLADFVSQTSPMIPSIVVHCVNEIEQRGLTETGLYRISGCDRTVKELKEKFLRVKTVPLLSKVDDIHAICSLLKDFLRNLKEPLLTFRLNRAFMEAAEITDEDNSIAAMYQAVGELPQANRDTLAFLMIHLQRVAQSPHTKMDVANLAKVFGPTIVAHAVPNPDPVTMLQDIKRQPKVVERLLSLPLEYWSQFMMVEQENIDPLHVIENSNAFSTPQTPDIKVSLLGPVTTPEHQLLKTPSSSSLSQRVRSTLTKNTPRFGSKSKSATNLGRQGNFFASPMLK

Streptococcus = experiment: GAS UMAA2166 growth inhibition – luminescence, BacTiterGlo, counter-screen for streptokinase expression inhibitor project, dose response (AID 1915); assay type: functional, organism-based;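 further: potency for reduction of bacterial viability or growth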
[11] = test system: Streptococcus sp. 'group A'; experiment: Streptococcus pyogenes SK(-)GAS viability under kanamycin – luminescence, BacTiterGlo, confirmation, counter-screen for streptokinase expression inhibitor project, dose response (AID 1900); assay type: functional, organism-based
Cytochrome P450 2C19 = Cytochrome P450 2C19 (Homo sapiens, UniProt P33261); experiment: Cytochrome panel assay with activity outcomes. Panel member name: p450-cyp2c19 Compounds with AC50 equal or less than 10 uM are considered active; assay type: functional
Cytochrome P450 2C19, sequence (P33261 whole entry): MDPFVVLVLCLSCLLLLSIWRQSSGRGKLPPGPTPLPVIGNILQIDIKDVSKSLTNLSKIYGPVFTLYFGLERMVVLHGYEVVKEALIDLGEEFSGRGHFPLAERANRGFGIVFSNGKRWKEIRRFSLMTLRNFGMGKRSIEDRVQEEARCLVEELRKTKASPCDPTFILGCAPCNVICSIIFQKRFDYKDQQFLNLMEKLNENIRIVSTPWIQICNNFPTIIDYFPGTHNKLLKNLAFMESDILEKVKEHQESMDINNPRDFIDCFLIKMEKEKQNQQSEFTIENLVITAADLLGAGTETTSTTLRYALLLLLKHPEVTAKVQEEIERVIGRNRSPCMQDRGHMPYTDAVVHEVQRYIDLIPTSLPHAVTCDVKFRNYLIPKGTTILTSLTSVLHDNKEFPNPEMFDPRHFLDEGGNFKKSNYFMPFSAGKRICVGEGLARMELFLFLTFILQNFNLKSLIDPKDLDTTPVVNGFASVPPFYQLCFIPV

cells = assay type: functional

Compound: O=C(OCC12CC3CC(CC(C3)C1)C2)c1ccc(NCc2cc(O)ccc2O)cc1
- AC50 [1]: 7.26 µM (active)
- AC50 [2]: 66.7 µM (active)
- AC50 [3]: 3.25 µM (active)

Compound: Clc1ccc(NN(Cc2ccncc2)c2ccc(Cl)cc2)cc1
- EC50 [4]: > 53 µM (inactive)

Compound: CCNc1ncc2nc(-c3cn(C)c4ccccc34)c(=O)n(C)c2n1
- AC50 (Cytochrome P450 3A4): 10 µM (inconclusive)
- AC50 (Cytochrome P450 2D6): 12.6 µM (inconclusive)
- AC50 (Cytochrome P450 2C9): 39.8 µM (inconclusive)

Compound: COc1ccccc1NCC(O)Cn1c2ccccc2c2ccccc21 (stereo unspecified)
- EC50 [5]: 43.6 µM (active)
- EC50 [6]: 34.3 µM (active)

Compound: Cc1cccc(Oc2ncc(-c3ccc(Cl)cc3)cn2)c1C
- AC50 (Cytochrome P450 3A4): 25.1 µM (inconclusive)
- AC50 (Cytochrome P450 2D6): 17.8 µM (inconclusive)

Compound: CCOC(=O)c1sc(NC(=O)Nc2ccccc2Cl)cc1C
- EC50 [7]: 2.26 µM (active)
- AC50 [8]: 5.37 µM (active)
- EC50 [9]: > 30 µM (not active)

Compound: Cc1ccc2oc(=O)c(/C=C(\O)c3ccccc3)nc2c1
- EC50 [4]: 12.1 µM (active)
- IC50 [10]: 48.6 µM (active)

Compound: CC(C)=CCc1c(O)ccc(C(=O)Cc2ccccc2)c1O
- AC50 [8]: 3.82 µM (active)

Compound: CCOC(=O)c1sc(NC(=S)NC(=O)c2cccc(OC)c2)nc1C
- EC50 [4]: 15 µM (active)

Compound: CC(C)=CCc1c(O)c(CC=C(C)C)c2occ(-c3ccc(O)cc3)c(=O)c2c1O
- AC50 [8]: 2.62 µM (active)
- EC50 (Streptococcus): 3.28 µM (active)
- EC50 [11]: 2.66 µM (active)

Compound: Cc1c(C2(O)CCCCC2)[nH]c2cc(C(F)(F)F)ccc12
- AC50 [8]: 7.81 µM (active)

Compound: COc1ccc(-c2ncc3ccccn23)cc1OC
- IC50 [10]: 126 µM (active)

Compound: CCc1cc2c(nc1CC)CCN(CC/C(C)=N/OC[C@@H](O)[C@@H]1O[C@@H]3OC(C)(C)O[C@@H]3[C@H]1O)C2
- AC50 (Cytochrome P450 2C19; read-out: AC50): 0.0316 µM (inconclusive)
- AC50 (Cytochrome P450 3A4): 6.31 µM (inconclusive)
- AC50 (Cytochrome P450 2D6): 6.31 µM (inconclusive)

Compound: C/C=C1\C[N@@+]2(C)CC[C@@]34C(=C(C=O)[C@H]1C[C@H]32)Nc1ccccc14
- AC50 (Cytochrome P450 3A4): 0.00126 µM (inconclusive)
- AC50 (Cytochrome P450 2D6): 6.31 µM (inconclusive)

Compound: COc1ccccc1C1=NOC(COC(=O)c2ccc([N+](=O)[O-])cc2)C1 (stereo unspecified)
- IC50 (cells): 3.93 µM (active)

Compound: CCN(CC)S(=O)(=O)c1ccc(C(=O)OCn2nnc3ccccc3c2=O)cc1
- IC50 (cells): 17.9 µM (active)

Compound: Cc1cccc(CN(C)CCc2ccccn2)c1
- EC50 [7]: 0.517 µM (active)
- AC50 (Cytochrome P450 2D6): 2.51 µM (inconclusive)
- AC50 (Cytochrome P450 2C9): 0.355 µM (inconclusive)
- EC50 [9]: > 30 µM (not active)

Compound: CC(C)c1nccn1Cc1ccc(Cl)cc1Cl
- AC50 (Cytochrome P450 2C19; read-out: AC50): 2 µM (inconclusive)
- AC50 (Cytochrome P450 2D6): 3.16 µM (inconclusive)

Compound: Cc1ccc(N(C(C)C(=O)Nc2cc(Cl)ccc2Oc2ccccc2)S(C)(=O)=O)cc1 (stereo unspecified)
- AC50 (Cytochrome P450 2D6): 15.8 µM (inconclusive)

Compound: CCOCCN1CCC(OC(C)=O)C(C)C1 (stereo unspecified)
- AC50 (Cytochrome P450 2C19; read-out: AC50): 3.16 µM (inconclusive)
- AC50 (Cytochrome P450 2D6): 12.6 µM (inconclusive)

Compound: c1ncc(-c2ccoc2)c(NC2CC2)n1
- AC50 (Cytochrome P450 2C19; read-out: AC50): 39.8 µM (inconclusive)
- AC50 (Cytochrome P450 2D6): 25.1 µM (inconclusive)

Compound: Cc1nn(Cc2c(F)c(F)c(F)c(F)c2F)c(C)c1NC(=O)c1c(-c2ccccc2)nn(-c2ccccc2)c1C
- EC50 [5]: 25.8 µM (active)
- EC50 [6]: 21.9 µM (active)

Compound: Cc1ccccc1CN(C)CCc1ccccn1
- IC50 [10]: 123 µM (active)

Compound: CCOc1cc(/C=N/NC(=O)CCn2nc(C)cc2C)ccc1O
- IC50 [10]: 61.5 µM (active)

Compound: O=S(=O)(NCC1(N2CCOCC2)CCCCC1)c1ccc(Cl)cc1C(F)(F)F
- EC50 [4]: 5.65 µM (active)

Compound: CN(c1cccc(Cl)c1)S(=O)(=O)c1cccc(C(=O)NCc2ccncc2)c1
- AC50 [1]: 0.664 µM (active)
- AC50 [2]: 61.5 µM (active)
- AC50 [3]: < 0.26 µM (active)

Compound: N#Cc1ccc(C(c2nnnn2C2CCCC2)N2CCC(Cc3ccccc3)CC2)cc1 (stereo unspecified)
- AC50 (Cytochrome P450 2D6): 10 µM (inconclusive)
- AC50 (Cytochrome P450 2C9): 11.2 µM (inconclusive)

Compound: O/N=C/c1cc(Cl)ccc1OCc1ccccc1Cl
- AC50 [8]: 4.45 µM (active)

Compound: O=C(c1ccco1)N1CCC[C@@]2(CCN(c3ccncc3)C2)C1
- AC50 (Cytochrome P450 2D6): 25.1 µM (inconclusive)
- AC50 (Cytochrome P450 2C9): 15.8 µM (inconclusive)

Compound: COC(=O)[C@@H](NC(=O)c1cc(COc2cncc(Cl)c2)on1)c1ccccc1
- IC50 (cells): 5.52 µM (active)

Compound: Cc1cc2c(nc1C)CCCN2C[C@H](C)O/N=C1/[C@H]2O[C@@H]2[C@@H](O)[C@H]2[C@H]1CCn1c(=O)n(-c3ccccc3)c(=O)n12
- AC50 (Cytochrome P450 3A4): 6.31 µM (inconclusive)
- AC50 (Cytochrome P450 2D6): 2.51 µM (inconclusive)

Compound: Cc1ccc(S(=O)(=O)N2CCN(c3ncnc4sccc34)CC2)cc1C
- AC50 [1]: 6.17 µM (active)
- AC50 [2]: 5.96 µM (active)
- AC50 [3]: 3.53 µM (active)

Compound: COc1ccccc1N1CCN(CCCCN2C(=O)c3ccccc3C2=O)CC1 [NAN-190]
- AC50 (Cytochrome P450 3A4): 31.6 µM (inconclusive) and 1.58 µM (inconclusive)
- AC50 (Cytochrome P450 2D6): 12.6 µM (inconclusive) and 10 µM (inconclusive)

Compound: CC(C)COc1ccc(C2(C#N)CC[N+](C)(C)CC2)cc1.[Br-]
- AC50 (Cytochrome P450 2C19): inconclusive
- AC50 (Cytochrome P450 3A4): 39.8 µM (inconclusive)
- AC50 (Cytochrome P450 2D6): 11.2 µM (inconclusive)

Compound: COC(=O)c1[nH]c2ccc(C)cc2c1NC(=O)NC1CCCCC1
- EC50 [5]: 26.5 µM (active)
- EC50 [6]: 20.2 µM (active)

Compound: O=C(NCc1ccc(Cl)cc1)c1cccc(NC(=O)c2ccccc2)c1
- AC50 [8]: 5.29 µM (active)

Compound: O=C(OCC(=O)C12CC3CC(CC(C3)C1)C2)c1ccccn1
- IC50 (cells): 37.8 µM (active)

Compound: COCCNC(=S)N/N=C/c1ccc(-c2ccc([N+](=O)[O-])cc2)o1
- EC50 [4]: 5.95 µM (active)

Compound: CCCCNc1c(-c2ccc(SC(C)CC)cc2)nc2ccccn12 (stereo unspecified)
- AC50 [8]: 4.29 µM (active)

Compound: COc1cc(OC)c(OC)cc1CNc1cc(C)ccc1OC
- AC50 [1]: 7.92 µM (active)
- AC50 [2]: 47.2 µM (active)
- AC50 [3]: 18.1 µM (active)

Compound: O=C(Cn1c(C(=O)NCc2ccco2)cc2sccc21)c1ccccc1
- IC50 [10]: 139 µM (active)

Compound: COCC(C)NCc1cccc(C)c1 (stereo unspecified)
- AC50 (Cytochrome P450 2D6): 14.1 µM (inconclusive)
